Results on eleven molecules are retold here after PubChem BioAssay (NCI).

Some test systems named below: 786-0 renal; OVCAR-3 ovarian; ACHN renal; HOP-62 NSCLC; RXF 393 renal; HCC-2998 colon; IGROV1 ovarian; T-47D breast; SNB-75 CNS; NCI-H522 lung.
What all share (assay): DTP human tumour cell line panel, 48 h

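Each compound was tested at five concentrations against cells in 96-well plates for 48 hours. GI50: concentration for 50% inhibition of growth. At the TGI there is no net growth.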

As usually defined, the GI50 is the concentration at which growth is held to half of that of the control. As usually defined, the TGI is the concentration giving total growth inhibition. The low end stands for more potent growth arrest, the high end for less potent growth arrest. Regarding `CCOC(=O)c1c2c(n(Cc3ccccc3)c1C)-c1nc(Cc3ccccc3)[nH]c1C(=O)C2=O`, the GI50 with 786-0 renal was 1.77 µM; in the assay with OVCAR-3 ovarian, 1.13 µM; in the assay on ACHN renal it was 1.64 µM; with HOP-62 NSCLC, 1.75 µM; in the assay with RXF 393 renal, 0.87 µM; in the assay on HCC-2998 colon it was 2.6 µM. Besides, the GI50 with IGROV1 ovarian is 1.24 µM; in the assay on T-47D breast, 0.496 µM; in the assay with SNB-75 CNS, 1.49 µM. For the same molecule, the TGI in the assay on 786-0 renal was found to be 3.29 µM; in the assay with OVCAR-3 ovarian, 2.47 µM; in the assay on ACHN renal, 3 µM; in the assay with HOP-62 NSCLC it was 3.45 µM; with RXF 393 renal, 2.34 µM; in the assay on HCC-2998 colon, 4.09 µM. Moreover, the TGI in the assay with IGROV1 ovarian was 2.68 µM; in the assay with T-47D breast, 2.64 µM; in the assay on SNB-75 CNS it was 2.81 µM.

Take `CCCCCCCCCCCCCCCCCCNC(=O)OCC(CNS(=O)(=O)CCC[n+]1cccc2ccccc21)COC` (stereo unspecified): the TGI in the assay with 786-0 renal was above 43.5 µM; in the assay on OVCAR-3 ovarian, 48.5 µM; with ACHN renal it was 29.9 µM; with HOP-62 NSCLC, 38.9 µM; in the assay on RXF 393 renal it was 55.8 µM; with T-47D breast, above 100 µM. This molecule also returned a concentration for total growth inhibition (TGI) in the assay on SNB-75 CNS of 6.84 µM.

Take `Nc1nc(N)nc(CC(=O)O)n1`: the TGI with 786-0 renal, with OVCAR-3 ovarian, in the assay with ACHN renal, in the assay with HOP-62 NSCLC, in the assay on RXF 393 renal and with IGROV1 ovarian was above 100 µM in each case. The TGI with NCI-H522 lung, with T-47D breast and with SNB-75 CNS was above 100 µM throughout.

For `CC[C@H](Nc1nc(N)nc(C2CC2)c1C#N)c1nc2cccc(NCc3ccc(C(=O)NO)cc3)c2c(=O)n1-c1ccccc1`, the GI50 in the assay on 786-0 renal is 1.68 µM; with OVCAR-3 ovarian, 1.73 µM; with ACHN renal, 1.85 µM; in the assay on HOP-62 NSCLC, 1.63 µM; in the assay with RXF 393 renal, 0.582 µM; in the assay with HCC-2998 colon, 1.95 µM. Also, the GI50 was 1.69 µM in the assay with NCI-H522 lung, 1.82 µM in the assay on T-47D breast and 1.57 µM in the assay on SNB-75 CNS. In addition, the TGI with 786-0 renal stood at 3.36 µM; in the assay with OVCAR-3 ovarian it was 4.55 µM; in the assay with ACHN renal, 4.58 µM; in the assay with HOP-62 NSCLC, 4.29 µM; with RXF 393 renal, 1.99 µM; in the assay with HCC-2998 colon, 5 µM. The total growth inhibition concentration (TGI) was determined as 4.67 µM in the assay with NCI-H522 lung, 5.78 µM in the assay with T-47D breast and 5.43 µM in the assay on SNB-75 CNS.

Take `CSc1nsc(S/C=C\C(=O)c2ccc(C)cc2)n1`: the GI50 in the assay on 786-0 renal is 14.8 µM; with OVCAR-3 ovarian, 17 µM; with ACHN renal, 17.6 µM; in the assay on HOP-62 NSCLC it was 21 µM; in the assay with RXF 393 renal it was 15.9 µM; in the assay with HCC-2998 colon, 17.8 µM. In addition, the values for the GI50 in the assay with IGROV1 ovarian, in the assay with NCI-H522 lung and with T-47D breast were 25.5 µM, 12.2 µM and 23 µM, respectively. Moreover, the TGI amounted to 28.9 µM in the assay with 786-0 renal; 34.5 µM with OVCAR-3 ovarian; 31.8 µM with ACHN renal; 43.8 µM with HOP-62 NSCLC; 31.9 µM with RXF 393 renal; 33.8 µM in the assay on HCC-2998 colon. In addition, the TGI in the assay with IGROV1 ovarian was above 100 µM; in the assay with NCI-H522 lung, above 59.5 µM; with T-47D breast, above 62.2 µM.

On to `C[C@]12CC[C@@H](OC(=O)N(CCCl)N=O)C[C@@H]1CC[C@@H]1[C@@H]2CC[C@]2(C)C(=O)CC[C@@H]12`, for which the GI50 with 786-0 renal is 0.891 µM; with OVCAR-3 ovarian it was 5.76 µM; with ACHN renal, 0.487 µM; in the assay on HOP-62 NSCLC, 5.48 µM; with HCC-2998 colon it was 2.77 µM; with IGROV1 ovarian it was 3.75 µM. The GI50 is 9.06 µM in the assay with NCI-H522 lung, 2.82 µM in the assay on T-47D breast and 2.74 µM with SNB-75 CNS. Further, the TGI in the assay with 786-0 renal came out at 16.7 µM; in the assay on OVCAR-3 ovarian, 19.9 µM; with ACHN renal, 13.8 µM; with HOP-62 NSCLC, 27 µM; in the assay with HCC-2998 colon, 9.43 µM; with IGROV1 ovarian it was 24 µM. The TGI in the assay with NCI-H522 lung is 30.8 µM; in the assay on T-47D breast, 55.9 µM; with SNB-75 CNS it was 30.5 µM.

`NNS(=O)(=O)c1cc(C(=O)O)cc(C(=O)O)c1`: the TGI in the assay with 786-0 renal, in the assay on OVCAR-3 ovarian, in the assay on ACHN renal, in the assay with HOP-62 NSCLC, in the assay on RXF 393 renal and with IGROV1 ovarian was above 100 µM in each case. Besides, the TGI in the assay with NCI-H522 lung and in the assay on T-47D breast was above 100 µM each time.

Regarding `Cc1ccc(/C=C2/NC(=S)SC2=O)cc1`, the TGI in the assay on 786-0 renal, in the assay with OVCAR-3 ovarian, in the assay with ACHN renal, with HOP-62 NSCLC, with HCC-2998 colon and with IGROV1 ovarian was above 100 µM in each case. Besides, the TGI was above 100 µM with T-47D breast and 80.8 µM in the assay on SNB-75 CNS.

Turning to `Cc1c(Cl)cccc1NC(=O)/C(Cl)=C(\Cl)C(=O)O`, the TGI is 33.3 µM in the assay with 786-0 renal; 34.1 µM in the assay on OVCAR-3 ovarian; 31.3 µM in the assay with ACHN renal; 78.5 µM in the assay on HOP-62 NSCLC; 36.9 µM in the assay on RXF 393 renal; 35.5 µM in the assay on HCC-2998 colon. In addition, the TGI with IGROV1 ovarian amounted to 35.7 µM; in the assay with NCI-H522 lung, 7.19 µM; in the assay with SNB-75 CNS, 46.7 µM.

With `C/C=C(/C)c1cnc(CC(C)C)c(=O)[nH]1`, the TGI in the assay on 786-0 renal, in the assay with OVCAR-3 ovarian, in the assay on ACHN renal, in the assay on HOP-62 NSCLC, in the assay on RXF 393 renal and in the assay on HCC-2998 colon was above 100 µM each time. The TGI in the assay with IGROV1 ovarian, in the assay on T-47D breast and in the assay on SNB-75 CNS was above 100 µM each time.

On to `NC(=S)NNC(=S)NC(=O)c1ccco1`, for which the TGI in the assay with 786-0 renal, in the assay with OVCAR-3 ovarian, in the assay on ACHN renal, in the assay on HOP-62 NSCLC, in the assay with RXF 393 renal and in the assay on HCC-2998 colon was above 10 µM in each case. Further, the TGI in the assay on IGROV1 ovarian, in the assay on T-47D breast and in the assay on SNB-75 CNS was above 10 µM in each case.
